Experimental data: BindingDB's records for doi:10.1021/jm9805081 (Warner-Lambert, 1999)

Target: T1, Prostaglandin G/H synthase 2 (Homo sapiens, UniProt P35354)
T1 sequence (P35354 whole entry): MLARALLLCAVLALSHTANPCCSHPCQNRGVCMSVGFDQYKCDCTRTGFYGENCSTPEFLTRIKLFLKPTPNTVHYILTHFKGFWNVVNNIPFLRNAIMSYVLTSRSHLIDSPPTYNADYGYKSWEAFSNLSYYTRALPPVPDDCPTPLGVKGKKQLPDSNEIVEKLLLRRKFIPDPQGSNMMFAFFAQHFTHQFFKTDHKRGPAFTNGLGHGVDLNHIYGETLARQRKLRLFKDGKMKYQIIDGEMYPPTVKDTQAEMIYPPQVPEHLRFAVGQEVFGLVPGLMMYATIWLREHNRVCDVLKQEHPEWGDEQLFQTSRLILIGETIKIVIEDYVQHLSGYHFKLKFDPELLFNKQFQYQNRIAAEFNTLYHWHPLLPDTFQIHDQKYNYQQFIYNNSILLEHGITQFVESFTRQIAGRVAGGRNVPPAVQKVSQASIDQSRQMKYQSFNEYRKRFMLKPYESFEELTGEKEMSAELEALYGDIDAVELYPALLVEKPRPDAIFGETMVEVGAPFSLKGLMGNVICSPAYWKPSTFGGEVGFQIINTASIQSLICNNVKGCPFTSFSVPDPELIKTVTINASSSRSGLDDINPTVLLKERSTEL
Experiment: IC50 value against recombinant human Prostaglandin G/H synthase 2 at 10 uM; not active

IC50: > 10 µM
SMILES: CONC1=NC(=O)C(=Cc2cc(C(C)(C)C)c(O)c(C(C)(C)C)c2)O1 [5-[1-(3,5-Di-tert-butyl-4-hydroxy-phenyl)-meth-(Z)-ylidene]-2-methoxyamino-oxazol-4-one]
